Test results: patent US20080058426A1, “COMPOSITION AND METHOD FOR TREATING PSORIASIS” (priority 2006, published 2008)

Assay: Safety of THC in the psoriasis clinical study
Conditions: human, in vivo
Text: • Study Duration: 45 days • Population: 10 psoriasis affected subjects • Intervention: THC formulated as a cream with pharmaceutically acceptable carriers applied topically three times a day for 45 days.
The primary objective in this study was to determine the efficacy and safety of the THC cream. The parameters to detect the efficacy and safety of the medication included relief from the characteristic symptoms of psoriasis like itching, erythema, scaling, infiltration, and the extent of clearance of psoriasis lesions.

Tetrahydrocurcuminoids [THC]
Toxic side effects: devoid of toxic side effects
